What was measured:
HCA3 [1] = biological target: HCA3 (UniProt P49019); assay: pEC50 of agonist-induced pathway activation (ebBRET)
HCA3 [2] = biological target: HCA3 (UniProt P49019); assay: Emax (maximal agonist-induced change in ebBRET relative to vehicle) (% of vehicle response (amplitude of change)); higher = larger response (for Gs, larger decrease in membrane ebBRET, i.e. stronger Gs activation)
AMY3 [3] = assay: pEC50 of agonist-induced pathway activation (ebBRET)
AMY3 [4] = assay: Emax (maximal agonist-induced change in ebBRET relative to vehicle) (% of vehicle response (amplitude of change)); higher = larger response (for Gs, larger decrease in membrane ebBRET, i.e. stronger Gs activation)
mGluR8 = mGluR8 (UniProt O00222); assay: pEC50 of agonist-induced pathway activation (ebBRET)
B2 [5] = biological target: T1, B2 (UniProt P30411); assay: as above
T1 sequence (whole entry): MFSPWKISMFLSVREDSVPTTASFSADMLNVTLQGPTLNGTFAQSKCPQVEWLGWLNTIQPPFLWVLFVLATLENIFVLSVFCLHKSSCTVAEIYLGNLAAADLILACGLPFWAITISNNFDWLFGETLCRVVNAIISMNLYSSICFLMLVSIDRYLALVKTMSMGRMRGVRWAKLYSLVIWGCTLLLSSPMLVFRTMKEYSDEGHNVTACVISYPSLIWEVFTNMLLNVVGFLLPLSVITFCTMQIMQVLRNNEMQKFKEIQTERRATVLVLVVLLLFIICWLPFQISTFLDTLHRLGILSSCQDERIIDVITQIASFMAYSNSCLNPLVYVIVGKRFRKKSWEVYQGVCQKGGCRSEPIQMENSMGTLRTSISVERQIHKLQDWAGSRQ

B1 [6] = biological target: T2, B1 (UniProt P46663); assay: as above
T2 sequence (whole entry): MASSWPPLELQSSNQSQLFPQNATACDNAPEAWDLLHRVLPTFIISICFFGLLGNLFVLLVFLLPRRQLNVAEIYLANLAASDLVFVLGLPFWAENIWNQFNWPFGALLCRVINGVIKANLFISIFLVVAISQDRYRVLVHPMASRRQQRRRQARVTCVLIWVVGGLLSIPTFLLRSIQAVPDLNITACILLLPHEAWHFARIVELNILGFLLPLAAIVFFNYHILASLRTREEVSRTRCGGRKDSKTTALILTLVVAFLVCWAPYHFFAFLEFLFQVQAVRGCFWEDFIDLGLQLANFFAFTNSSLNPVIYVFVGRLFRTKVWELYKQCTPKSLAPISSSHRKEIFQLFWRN

B2 [7] = biological target: T1, B2; assay: Emax (maximal agonist-induced change in ebBRET relative to vehicle) (% of vehicle response (amplitude of change)); higher = larger response (for Gs, larger decrease in membrane ebBRET, i.e. stronger Gs activation)
B1 [8] = biological target: T2, B1; assay: as above
GPR65 [9] = biological target: GPR65 (UniProt Q8IYL9); assay: pEC50 of agonist-induced pathway activation (ebBRET)
GPR68 [10] = biological target: GPR68 (UniProt Q15743); assay: as above
GPR4 [11] = biological target: GPR4 (UniProt P46093); assay: as above
GPR65 [12] = biological target: GPR65 (UniProt Q8IYL9); assay: Emax (maximal agonist-induced change in ebBRET relative to vehicle) (% of vehicle response (amplitude of change)); higher = larger response (for Gs, larger decrease in membrane ebBRET, i.e. stronger Gs activation)
GPR68 [13] = biological target: GPR68 (UniProt Q15743); assay: as above
GPR4 [14] = biological target: GPR4 (UniProt P46093); assay: as above

Chain of GPR4 (P46093 whole entry, looked up): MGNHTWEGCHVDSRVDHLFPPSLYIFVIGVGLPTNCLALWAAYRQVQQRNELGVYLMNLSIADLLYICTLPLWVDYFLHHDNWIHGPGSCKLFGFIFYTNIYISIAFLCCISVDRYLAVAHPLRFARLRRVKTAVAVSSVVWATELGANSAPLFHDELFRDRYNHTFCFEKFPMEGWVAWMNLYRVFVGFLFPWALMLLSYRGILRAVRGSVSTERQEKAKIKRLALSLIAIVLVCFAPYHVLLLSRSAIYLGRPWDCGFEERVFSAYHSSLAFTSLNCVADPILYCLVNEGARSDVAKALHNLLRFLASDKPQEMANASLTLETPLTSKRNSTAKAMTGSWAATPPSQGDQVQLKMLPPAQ
Chain of GPR68 (Q15743 whole entry): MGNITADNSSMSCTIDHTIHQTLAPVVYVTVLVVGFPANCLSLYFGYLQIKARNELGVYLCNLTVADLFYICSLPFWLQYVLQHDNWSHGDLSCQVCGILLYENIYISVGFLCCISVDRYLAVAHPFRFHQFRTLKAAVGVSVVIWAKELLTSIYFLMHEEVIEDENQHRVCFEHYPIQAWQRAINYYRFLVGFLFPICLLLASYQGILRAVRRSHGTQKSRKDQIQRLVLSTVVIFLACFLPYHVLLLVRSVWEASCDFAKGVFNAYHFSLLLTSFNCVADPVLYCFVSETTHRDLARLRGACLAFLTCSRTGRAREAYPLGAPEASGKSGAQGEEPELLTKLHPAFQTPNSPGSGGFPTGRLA
Chain of mGluR8 (O00222 whole entry): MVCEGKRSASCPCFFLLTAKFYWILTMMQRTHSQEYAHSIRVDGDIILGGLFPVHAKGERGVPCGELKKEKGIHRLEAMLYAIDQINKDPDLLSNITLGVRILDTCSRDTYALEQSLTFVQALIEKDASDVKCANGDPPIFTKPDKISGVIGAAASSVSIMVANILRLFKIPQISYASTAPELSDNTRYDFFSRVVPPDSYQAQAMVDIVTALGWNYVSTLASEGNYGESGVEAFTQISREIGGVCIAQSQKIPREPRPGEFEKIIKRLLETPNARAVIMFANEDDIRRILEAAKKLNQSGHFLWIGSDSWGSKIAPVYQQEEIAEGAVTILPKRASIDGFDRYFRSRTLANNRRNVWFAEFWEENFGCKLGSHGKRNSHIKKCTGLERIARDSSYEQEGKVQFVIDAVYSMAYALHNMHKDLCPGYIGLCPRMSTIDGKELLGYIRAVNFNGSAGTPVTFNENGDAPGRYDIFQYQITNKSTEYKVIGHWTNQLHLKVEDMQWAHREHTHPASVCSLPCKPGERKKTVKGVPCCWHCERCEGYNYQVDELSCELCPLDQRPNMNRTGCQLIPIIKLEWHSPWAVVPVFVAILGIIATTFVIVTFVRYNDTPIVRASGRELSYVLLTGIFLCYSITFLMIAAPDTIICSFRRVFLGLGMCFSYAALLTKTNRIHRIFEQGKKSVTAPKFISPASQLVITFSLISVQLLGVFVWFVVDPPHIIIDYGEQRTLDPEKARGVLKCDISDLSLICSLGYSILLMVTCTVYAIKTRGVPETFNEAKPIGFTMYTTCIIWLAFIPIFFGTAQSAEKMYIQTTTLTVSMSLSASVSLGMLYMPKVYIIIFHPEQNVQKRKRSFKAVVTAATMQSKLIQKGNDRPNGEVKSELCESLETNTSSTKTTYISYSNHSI
Chain of GPR65 (Q8IYL9 whole entry): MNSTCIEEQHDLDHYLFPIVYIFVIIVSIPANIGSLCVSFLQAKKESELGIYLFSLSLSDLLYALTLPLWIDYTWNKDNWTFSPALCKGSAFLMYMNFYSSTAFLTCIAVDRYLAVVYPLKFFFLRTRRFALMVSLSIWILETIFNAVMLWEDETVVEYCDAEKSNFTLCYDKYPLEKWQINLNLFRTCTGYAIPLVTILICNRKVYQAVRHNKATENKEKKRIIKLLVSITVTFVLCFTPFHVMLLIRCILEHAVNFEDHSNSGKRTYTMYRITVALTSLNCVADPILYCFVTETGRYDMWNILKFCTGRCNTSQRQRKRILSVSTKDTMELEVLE
Chain of HCA3 (P49019 whole entry): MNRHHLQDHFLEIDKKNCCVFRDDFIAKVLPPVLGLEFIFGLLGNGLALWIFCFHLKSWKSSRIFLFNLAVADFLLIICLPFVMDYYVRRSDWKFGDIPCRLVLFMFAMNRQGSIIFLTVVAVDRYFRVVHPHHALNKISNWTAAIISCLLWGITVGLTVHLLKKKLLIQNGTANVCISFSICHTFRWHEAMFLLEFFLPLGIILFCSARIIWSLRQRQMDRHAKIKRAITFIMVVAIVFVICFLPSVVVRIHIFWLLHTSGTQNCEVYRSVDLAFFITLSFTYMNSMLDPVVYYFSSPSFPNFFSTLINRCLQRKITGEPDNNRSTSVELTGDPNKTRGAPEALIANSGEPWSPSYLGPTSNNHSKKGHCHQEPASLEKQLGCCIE

CCCCCC(O)CC(=O)O (stereo not drawn) [3-HOA]
Conditions	Emax, HCA3 [2]	pEC50, HCA3 [1]
pathway (G protein / arrestin sensor): G13	97.9	4.08
pathway (G protein / arrestin sensor): Gi1	415	5.63
pathway (G protein / arrestin sensor): Gi2	190	5.71
pathway (G protein / arrestin sensor): GoA	187	5.5
pathway (G protein / arrestin sensor): GoB	317	5.45
pathway (G protein / arrestin sensor): Gz	178	5.25
pathway (G protein / arrestin sensor): βarr1/GRK2	605	3.49
pathway (G protein / arrestin sensor): βarr2	115	3.52
pathway (G protein / arrestin sensor): βarr2/GRK2	487	3.47

CC[C@H](C)[C@H](NC(=O)[C@H](C)NC(=O)CNC(=O)[C@H](Cc1ccccc1)NC(=O)[C@H](CC(N)=O)NC(=O)[C@H](CC(N)=O)NC(=O)[C@H](CO)NC(=O)[C@H](CO)NC(=O)[C@H](Cc1cnc[nH]1)NC(=O)[C@@H](NC(=O)[C@H](CC(C)C)NC(=O)[C@H](Cc1ccccc1)NC(=O)[C@H](CC(N)=O)NC(=O)[C@H](C)NC(=O)[C@H](CC(C)C)NC(=O)[C@H](CCCNC(=N)N)NC(=O)[C@H](CCC(N)=O)NC(=O)[C@@H](NC(=O)[C@H](C)NC(=O)[C@@H]1CSSC[C@H](NC(=O)[C@@H](N)CCCCN)C(=O)N[C@@H](CC(N)=O)C(=O)N[C@@H]([C@@H](C)O)C(=O)N[C@@H](C)C(=O)N[C@@H]([C@@H](C)O)C(=O)N1)[C@@H](C)O)C(C)C)C(=O)N[C@@H](CC(C)C)C(=O)N[C@@H](CO)C(=O)N[C@@H](CO)C(=O)N[C@H](C(=O)N[C@@H](CC(N)=O)C(=O)N[C@H](C(=O)NCC(=O)N[C@@H](CO)C(=O)N[C@@H](CC(N)=O)C(=O)N[C@H](C(=O)N[C@@H](Cc1ccc(O)cc1)C(N)=O)[C@@H](C)O)C(C)C)[C@@H](C)O [Amylin]
Conditions	Emax, pathway (G protein / arrestin sensor): G12	Emax, pathway (G protein / arrestin sensor): G13	Emax, pathway (G protein / arrestin sensor): G15	Emax, pathway (G protein / arrestin sensor): Gs	pEC50, pathway (G protein / arrestin sensor): G12	pEC50, pathway (G protein / arrestin sensor): G13	pEC50, pathway (G protein / arrestin sensor): G15	pEC50, pathway (G protein / arrestin sensor): Gs
AMY3 [3]	–	–	–	–	8.6	8.49	7.22	7.79
AMY3 [4]	62.3	271	122	21.4	–	–	–	–

NC(CCC(=O)O)C(=O)O (stereo not drawn) [Glutamate]
mGluR8
Conditions	pEC50
pathway (G protein / arrestin sensor): Gi1	5.6
pathway (G protein / arrestin sensor): Gi2	5.52
pathway (G protein / arrestin sensor): GoA	6.07
pathway (G protein / arrestin sensor): GoB	5.99
pathway (G protein / arrestin sensor): Gz	5.49

NCCCC[C@H](N)C(=O)N[C@@H](CCCN=C(N)N)C(=O)N1CCC[C@H]1C(=O)N1CCC[C@H]1C(=O)NCC(=O)N[C@@H](Cc1ccccc1)C(=O)N[C@@H](CO)C(=O)N1CCC[C@H]1C(=O)N[C@@H](Cc1ccccc1)C(=O)N[C@@H](CCCN=C(N)N)C(=O)O [Kallidin]
Conditions	Emax, B1 [8]	Emax, B2 [7]	pEC50, B1 [6]	pEC50, B2 [5]
pathway (G protein / arrestin sensor): G11	201	802	6.8	9.54
pathway (G protein / arrestin sensor): G12	–	83.2	–	10.2
pathway (G protein / arrestin sensor): G13	–	484	–	9.16
pathway (G protein / arrestin sensor): G14	162	871	6.88	9.54
pathway (G protein / arrestin sensor): G15	78.9	1050	7.54	8.75
pathway (G protein / arrestin sensor): Gi1	94.8	478	6.64	8.14
pathway (G protein / arrestin sensor): Gi2	65.7	257	6.75	7.87
pathway (G protein / arrestin sensor): GoA	81.3	149	6.7	7.83
pathway (G protein / arrestin sensor): GoB	161	360	6.78	8.14
pathway (G protein / arrestin sensor): Gq	171	576	6.91	9.71
pathway (G protein / arrestin sensor): Gz	32.3	204	6.93	8.65
pathway (G protein / arrestin sensor): βarr1/GRK2	–	1740	–	8.62
pathway (G protein / arrestin sensor): βarr2	–	889	–	8.54
pathway (G protein / arrestin sensor): βarr2/GRK2	–	1180	–	8.52

Cl [pH (proton)]
Conditions	Emax, GPR4 [14]	Emax, GPR65 [12]	Emax, GPR68 [13]	pEC50, GPR4 [11]	pEC50, GPR65 [9]	pEC50, GPR68 [10]
pathway (G protein / arrestin sensor): G11	164	–	849	6.64	–	7.35
pathway (G protein / arrestin sensor): G12	–	–	63.4	–	–	7.71
pathway (G protein / arrestin sensor): G13	–	117	65.6	–	7.9	8.24
pathway (G protein / arrestin sensor): G14	61.3	–	871	6.26	–	7.2
pathway (G protein / arrestin sensor): G15	111	–	446	6.59	–	6.49
pathway (G protein / arrestin sensor): Gi1	–	–	582	–	–	6.56
pathway (G protein / arrestin sensor): Gi2	–	–	454	–	–	6.63
pathway (G protein / arrestin sensor): GoA	–	–	296	–	–	7.17
pathway (G protein / arrestin sensor): GoB	–	86.8	428	–	6.3	7.41
pathway (G protein / arrestin sensor): Gq	152	–	749	6.73	–	7.4
pathway (G protein / arrestin sensor): Gs	44.2	32.3	44.9	7.91	7	6.51
pathway (G protein / arrestin sensor): βarr1/GRK2	41.4	57.6	76.2	–	5.98	6.25
pathway (G protein / arrestin sensor): βarr2	173	68.8	103	6.99	6.31	6
pathway (G protein / arrestin sensor): βarr2/GRK2	–	–	147	–	–	6.07

From the supplement of paper PMC9005190
